From US5696146A, “Indole derivatives as steroid 5α-reductase inhibitors” (Pfizer Inc., priority 1993, dated 1997)

Key:
[1] = biological target: T1, human testosterone 5α-reductase-2 (Homo sapiens, UniProt P31213); assay: in vitro inhibition of human testosterone 5α-reductase-2 from hyperplastic human prostate tissue (test method 2); assay type: biochemical; conditions: hyperplastic human prostate particulate, pH 5.2, 37° C., 30 minutes
T1 construct: using tissue from hyperplastic human prostates; from tissue; host or cells: hyperplastic human prostate, 100,000G particulate preparation
T1 sequence (P31213 1-254): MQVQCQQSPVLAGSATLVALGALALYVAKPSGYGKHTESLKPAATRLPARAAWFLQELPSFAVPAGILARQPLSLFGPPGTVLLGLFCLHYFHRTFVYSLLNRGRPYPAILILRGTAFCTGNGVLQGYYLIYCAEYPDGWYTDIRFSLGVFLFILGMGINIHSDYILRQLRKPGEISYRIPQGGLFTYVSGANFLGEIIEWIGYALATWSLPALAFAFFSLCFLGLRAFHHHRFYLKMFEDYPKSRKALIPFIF
Description: (2) The compounds of the formula (I) may be tested for their potency in inhibiting human testosterone 5α-reductase-2 using tissue from hyperplastic human prostates. In determining inhibitory potency against human prostatic 5α-reductase-2 the following procedure was employed:
Frozen human prostate tissue was pulverised in liquid nitrogen using a steel mortar and pestle. The powdered tissue was homogenised in 4 volumes of Buffer A (20 mM sodium phosphate, pH 6.5, containing 0.32M sucrose, 1 mM dithiothreitol and 50 μM NADPH) with an Ultra-Turrax homogeniser (Janke and Kunkel GmBH & Co., Staufen i. BR., Germany). The homogenate was centrifuged at 500G for 5 minutes to remove large particles of tissue, and the supernatant was then centrifuged at 100,000G for 1 hour. The resulting pellet was dispersed in Buffer A (1 ml per g of prostate tissue originally used) with the Ultra-Turrax homogeniser. This particulate preparation was then filtered through 2 layers of cheesecloth and the filtrate was stored as 2ml samples at -70° C.
The following components, dissolved in Buffer B (25 mM citrate phosphate buffer, pH 5.2), were added to a test tube: 100 μl of [^3 H]-testosterone (1 μCi, 1 nmol; Du Pont, NEN Research Products, Stevenage, U.K.), 100 μl of NADPH regeneration system (5 mM NADPH, 50 mM glucose 6-phosphate, 5 units/ml glucose 6-phosphate dehydrogenase), a compound of the formula (I) dissolved in 5 μl of dimethyl sulphoxide, and Buffer B to give a final reaction volume of 1 ml. The mixture was warmed to 37° C. and the reaction started by addition of an aliquot of prostate particulate suspension. The reaction mixture was incubated at 37° C. for 30 minutes and was then quenched by addition, with vigorous mixing, of 2 ml of ethyl acetate containing 20 μg each of testosterone and 5α-dihydrotestosterone as carriers. The aqueous and organic layers were separated by centrifugation at 2000 G for 10 minutes. The organic layer was transferred to a second test tube and evaporated to dryness under nitrogen. The residue was dissolved in 50-80μl of absolute ethanol, spotted onto a silica gel 60 F254 TLC plate (E. Merck, Darmstadt, Germany) and developed in dichloromethane:acetone (185:15).
The radiochemical content in the bands of the substrate (testosterone) and the product (5α-dihydrotestosterone) were determined with a RITA Radio TLC Analyser (Raytest Instruments Ltd., Sheffield, U.K.). The percent of recovered radiolabel converted to 5α-dihydrotestosterone was calculated and used to determine enzyme activity. All incubations were conducted so that no more than 15% of substrate (testosterone) was converted to product.
The experimentally obtained data for a range of inhibitor concentrations was computer fitted to a sigmoidal dose-response curve and concentrations of compound giving 50% inhibition of 5α-reductase activity (IC50 's) were calculated using a SIGFIT program (De Lean, A., Munson, P. J. and Rodbard, D., American Journal of Physiology, 235, E97 (1978)).
(§1) The data were obtained using test method (4) set out on page 27 of the specification and test method (2) described on pages 24 to 26 of the specification, respectively.

[2] = biological target: T2, human testosterone 5α-reductase-1 (Homo sapiens, UniProt P18405); assay: in vitro inhibition of cloned human testosterone 5α-reductase-1 (test method 4); assay type: biochemical
T2 construct: expressed in transfected cells
T2 sequence (P18405 1-259): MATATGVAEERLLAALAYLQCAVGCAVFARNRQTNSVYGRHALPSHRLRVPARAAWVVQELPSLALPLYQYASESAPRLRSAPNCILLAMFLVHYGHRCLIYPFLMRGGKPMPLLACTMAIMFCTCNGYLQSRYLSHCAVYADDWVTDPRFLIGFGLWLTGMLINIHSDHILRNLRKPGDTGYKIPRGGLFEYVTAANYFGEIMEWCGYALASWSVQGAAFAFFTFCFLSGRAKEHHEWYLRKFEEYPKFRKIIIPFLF
Description: (4) The compounds of the formula (I) may be tested in vitro for human testosterone 5α-reductase-1 inhibitory activity using cloned human testosterone 5α-reductase-1 according to the procedure described in Proc. Natl. Acad. Sci. USA, 87, 3640 (1990).
as §1

CCCCCC1(c2ccc(CCC)cc2)Oc2ccc(CC(=O)c3cn(CCCC(=O)O)c4ccccc34)cc2O1 (stereo not drawn) [Example 4]
IC50 [1]: 16.9 nM
IC50 [2]: 11 nM

CCCCC1(c2ccc(CC)cc2)Oc2ccc(CC(=O)c3cn(CCCC(=O)O)c4ccccc34)cc2O1 (stereo not drawn) [Example 5, 4-(3-[(2-n-butyl-2-[4-ethyl]phenyl-1,3-benzodioxolan-5-yl)methylcarbonyl]indol-1-yl)butanoic acid]
IC50 [1]: 4.5 nM
IC50 [2]: 11 nM

CCCCC1(c2ccc(CCC)cc2)Oc2ccc(CC(=O)c3cn(CCCC(=O)O)c4ccccc34)cc2O1 (stereo not drawn) [Example 1, 4-(3-[(2-n-Butyl-2-[4-n-propyl]phenyl-1,3-benzodioxolan-5-yl)methylcarbonyl]indol-1-yl)butanoic acid]
IC50 [1]: 6.9 nM
IC50 [2]: 15.5 nM

CCCc1ccc(C2(CCC)Oc3ccc(CC(=O)c4cn(CCCC(=O)O)c5ccccc45)cc3O2)cc1 (stereo not drawn) [Example 3]
IC50 [1]: 13.3 nM
IC50 [2]: 14 nM

CCCCCCC1(c2ccc(CCC)cc2)Oc2ccc(CC(=O)c3cn(CCCC(=O)O)c4ccccc34)cc2O1 (stereo not drawn) [Example 2]
IC50 [1]: 16.7 nM
IC50 [2]: 24 nM

CCCCC1(c2ccc(CCC)cc2)Oc2ccc(CC(=O)c3cn(CCCC(=O)O)c4ccccc34)cc2O1 (stereo not drawn) [Example 6]
IC50 [1]: 2.3 nM
IC50 [2]: 17.5 nM
